According to PMC7567501 (Journal of Enzyme Inhibition and Medicinal Chemistry, 2019):
Read-outs that look alike come from different tables or passages of the source.

What was measured:
AChE = molecular target: T1, AChE (Electrophorus electricus, UniProt O42275); experiment: biochemical; parameters: species or system Electrophorus electricus (electric eel)
T1 construct: extracted from Electrophorus electricus (electric eel); purchased Sigma-Aldrich; host or cells: Electrophorus electricus (extracted)
Experimental: The electronic spectra and the AChE inhibition assays were performed in a 1-cm path length quartz cell with a Perkin Elmer Lambda 35 spectrophotometer equipped with a temperature programmer PTP1 + 1 Peltier System (T = 25.0 ± 0.1 °C). The enzyme AChE 500 U, extracted from Electrophorus electricus (electric eel), was purchased from Sigma-Aldrich.
The enzymatic activity of AChE was determined using an adaptation of the Ellman’s method, as described previously[29]^,[32]. Firstly, a stock solution of AChE was prepared by dissolving enzyme 500 U in 10 mL of tris(hydroxymethyl)aminomethane (TRIS) buffer (50 mM, pH 8). Then, 4–(2-hydroxyethyl)-1-piperazineethanesulfonic acid (HEPES) buffer was used for further dilution of the enzyme solution therefore obtaining the final working solution of AChE. The assay solution consisted of 374 µL of HEPES buffer (50 mM and pH 8.0), a variable volume (10–50 µL) of the compound’s stock solution (1 mg/mL of MeOH), 476 µL of 3 mM bis(3-carboxy-4-nitrophenyl) disulphide (DTNB), 25 µL of AChE stock solution and the necessary amount of methanol to attain the same volume of sample mixture in a 1 mL cuvette. After mixing, samples were left to incubate for 15 min and then 75 µL of 16 mM acetylthiocholine iodide (AChI) solution was added and immediately the reaction was monitored at 405 nm for 5 min. Firstly, enzyme activity was determined by measuring the rate of enzymatic reaction in solution by recording absorbance (with or without enzyme) at 405 nm. To calculate the percent inhibition of AChE, the enzyme activity in the presence of increasing concentrations of the test compound, as well as for a blank reaction (methanol without compounds), were measured at 405 nm.
Where v1is the initial reaction rate in the presence of the inhibitor and v0 is the initial rate of the control reaction. The curves of inhibition were obtained using a plot of percentage of enzymatic inhibition versus inhibitor concentration, and a calibration curve was obtained from which the linear regression parameters were obtained.

Aβ1-42 [1] = molecular target: T2, Aβ1-42 (Homo sapiens, UniProt P05067); experiment: biochemical; conditions: self-mediated Aβ42 aggregation without copper, inhibitor 80 µM, ThT fluorescence; for inhibition at 80 µM: read-out: Aβ aggregation inhibition, Self-Aβ aggr
T2 construct: Amyloid β-peptide (1–42), Aβ1-42, was purchased from GeneCust; purchased GeneCust
Source text: (§1) The Aβ amyloid plaques are one of the main hallmarks of AD and they result from over production and aggregation of β-amyloid peptide, which can accumulate outside the neurons, by self-mediated or Cu^2+-induced process, interfering with the synaptic impairment, neurotransmission and memory. Therefore, anti-AD drugs have been designed aimed to disrupt and disaggregate the Aβ’s fibrils into monomers, obtaining non-toxic forms of β-secretase’s products. To assess the effect of these new hybrids in the inhibition of amyloid peptide aggregation, a selection of the compounds was in vitro assayed, based on the thioflavin T (ThT) method. Indeed ThT is a histochemical dye able to create ionic or hydrophobic interactions with the peptide β–sheets, the predominant secondary structure of the amyloid fibrils in aqueous solutions[36]. This binding interactions can be monitored by fluorimetry since the presence of ThT-fibrils increases the absorbance and the emission of the ThT dye, and induces red shifts on the absorbance (from 385 to 446 nm) and emission peaks (from 445 to 485 nm)[14]. All the measurements were performed after incubation of the self-mediated and Cu^2+-induced Aβ aggregates in the presence/absence of the herein studied compounds. […]. […] This may be rationalised on the basis of their copper chelating capacity, as previously shown by other metal chelating compounds[14]^,[38]. Furthermore, despite some exceptions (e.g. 20 and 24), the increase in linker length and the chloro TAC substitution induce some small negative effects in the inhibition of Aβ self-aggregation.
(§2) For the study of the β-amyloid (Aβ) aggregation, the ThT fluorescence assay was performed using a Varian Cary Eclipse fluorimeter at the following wavelengths: excitation (446 nm) and emission (485 nm). Amyloid β-peptide (1–42), Aβ1-42, was purchased from GeneCust as a lyophilised powder stored at −20 °C. TEM assays were performed with a Hitachi H8100 transmission electron microscope with a LaB6 filament (200 kV, 10000–20000 × magnification) at MicroLab/IST.
(§3) Among all the methods to measure the aggregation of Aβ1-42, the assay based on Thioflavin T (ThT) is the standard procedure based on the fluorescence of this dye[49]^,[50]. This test is performed with Aβ1-42 peptide previously prepared by dissolving it in 1,1,1,3,3,3–hexafluoro-2-propanol (HFIP), an organic solvent useful to solubilise and monomerize the β–sheet protein aggregates and reserve them in the fridge. Films are re-dissolved in an Eppendorf tube with a fresh solution of a mixture of CH3CN/Na2CO3/NaOH, to have a stable stock solution, and afterwards, added to an optimised fibrillation phosphate buffer. The samples were prepared using MeOH (1 mg/mL) as solvent, followed by incubation in a water bath for 24 h at 37 °C with gentle shaking. After incubation, the samples were added to a 96-well plate (BD Falcon) with 180 µL of 5 µM ThT in 50 mM glycine-NaOH (pH 8.5) buffer. Blank samples were prepared for each concentration in a similar way, devoid of peptide. After 5-min incubation with the dye, the ThT fluorescence was measured at 446 nm (excitation) and 485 nm (emission).

Aβ1-42 [2] = molecular target: T2, Aβ1-42; experiment: Inhibition of Cu2+-induced Aβ1-42 aggregation, thioflavin T fluorescence; type: biochemical; conditions: Aβ42 aggregation with copper (40 µM), inhibitor 80 µM, ThT fluorescence; for inhibition at 80 µM: read-out: Aβ aggregation inhibition, Cu-ind Aβ aggr
Source text: as §1, §2
as §3, with “The samples were prepared using MeOH (1 mg/mL) as solvent, followed by incubation in a water bath for 24 h at 37 °C with gentle shaking. After incubation, the samples were added to a 96-well plate (BD Falcon) with 180 µL of 5 µM ThT in 50 mM glycine-NaOH (pH 8.5) buffer. Blank samples were prepared for each concentration in a similar way, devoid of peptide.” left out

[3] = AChE from Electric eel, mean of five independent experiments, read-out: AChE inhibition IC50

T2 sequence (P05067 672-713 limits assumed): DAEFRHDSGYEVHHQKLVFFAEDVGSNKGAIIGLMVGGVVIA
T1 sequence (O42275 24-633): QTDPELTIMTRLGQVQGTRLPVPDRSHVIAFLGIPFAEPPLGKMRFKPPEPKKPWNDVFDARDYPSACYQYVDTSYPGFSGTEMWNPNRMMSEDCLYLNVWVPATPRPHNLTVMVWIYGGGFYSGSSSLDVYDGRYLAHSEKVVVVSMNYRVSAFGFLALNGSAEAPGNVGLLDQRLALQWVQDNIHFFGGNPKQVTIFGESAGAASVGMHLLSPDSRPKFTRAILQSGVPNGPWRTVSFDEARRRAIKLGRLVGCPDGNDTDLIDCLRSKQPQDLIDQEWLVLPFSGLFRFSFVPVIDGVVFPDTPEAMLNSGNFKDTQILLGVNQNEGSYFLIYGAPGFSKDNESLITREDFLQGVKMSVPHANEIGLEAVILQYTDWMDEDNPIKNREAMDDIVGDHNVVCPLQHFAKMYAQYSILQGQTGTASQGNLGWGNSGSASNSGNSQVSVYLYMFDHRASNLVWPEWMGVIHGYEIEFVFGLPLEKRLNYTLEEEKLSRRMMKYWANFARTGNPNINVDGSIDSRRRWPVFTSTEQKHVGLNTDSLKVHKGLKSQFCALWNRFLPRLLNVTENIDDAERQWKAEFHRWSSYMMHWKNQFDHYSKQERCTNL

| SMILES | IC50 (AChE; [3]) | inhibition at 80 µM (Aβ1-42 [1]) | Aβ aggregation inhibition, Cu-ind Aβ aggr (Aβ1-42 [2]) | IC50 (AChE) | Aβ aggregation inhibition, Self-Aβ aggr (Aβ1-42 [1]) | inhibition at 80 µM (Aβ1-42 [2]) |
| --- | --- | --- | --- | --- | --- | --- |
| COc1cccc2cc(C(=O)NCCCCNc3c4c(nc5cc(Cl)ccc35)CCCC4)oc12 [Compound 20, N-(4-((6-chloro-1,2,3,4-tetrahydroacridin-9-yl)amino)butyl)-7-methoxybenzofuran-2-carboxamide] | 670 nM | 64.4% |  |  |  |  |
| O=C(NCCCNc1c2c(nc3cc(Cl)ccc13)CCCC2)c1cc2cccc(O)c2o1 [Compound 23, N-(3-((6-chloro-1,2,3,4-tetrahydroacridin-9-yl)amino)propyl)-7-hydroxybenzofuran-2-carboxamide] |  |  | 52.5% | 130 nM | 31.5% |  |
| COc1cccc2cc(C(=O)NCCCNc3c4c(nc5cc(Cl)ccc35)CCCC4)oc12 [Compound 19, N-(3-((6-chloro-1,2,3,4-tetrahydroacridin-9-yl)amino)propyl)-7-methoxybenzofuran-2-carboxamide] | 130 nM | 57.8% |  |  |  |  |
| O=C(NCCCNc1c2c(nc3ccccc13)CCCC2)c1cc2cccc(O)c2o1 [Compound 21, 7-Hydroxy-N-(3-((1,2,3,4-tetrahydroacridin-9-yl)amino)propyl)benzofuran-2-carboxamide] | 810 nM | 44% |  |  |  | 50.1% |
| O=C(NCCCCNc1c2c(nc3cc(Cl)ccc13)CCCC2)c1cc2cccc(O)c2o1 [Compound 24, N-(4-((6-chloro-1,2,3,4-tetrahydroacridin-9-yl)amino)butyl)-7-hydroxybenzofuran-2-carboxamide] | 610 nM | 43.4% |  |  |  | 53.4% |
